Source: PubChem BioAssay (NCI)
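The compound was tested at five concentrations on cells cultured in 96-well plates, with a 48-hour exposure period. Definition used: TGI = concentration required for complete inhibition of growth.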 Where a SMILES comes first, the peptide text is derived from it. [ ]: non-standard residue; d: D form. The star is where a group is joined. Phe(4-NO2) = N[CH](Cc1ccc([N+](=O)[O-])cc1)C(=O)O; Boc = CC(C)(C)OC(=O)*; OtBu = CC(C)(C)O*

Legend:
Test in all cases: NCI tumour cell line growth inhibition, 48 h
A498 renal = system: A498 renal
CAKI-1 renal = system: CAKI-1 renal
CCRF-CEM leukemia = system: CCRF-CEM leukemia
COLO 205 colon = system: COLO 205 colon
DU-145 prostate = system: DU-145 prostate
HCC-2998 colon = system: HCC-2998 colon
HCT-116 colon = system: HCT-116 colon
HCT-15 colon = system: HCT-15 colon
HL-60(TB) leukemia = system: HL-60(TB) leukemia
HOP-62 NSCLC = system: HOP-62 NSCLC
HOP-92 NSCLC = system: HOP-92 NSCLC
HT29 colon = system: HT29 colon
IGROV1 ovarian = system: IGROV1 ovarian
K-562 leukemia = system: K-562 leukemia
KM12 colon = system: KM12 colon
M14 melanoma = system: M14 melanoma
MALME-3M melanoma = system: MALME-3M melanoma
MCF7 breast = system: MCF7 breast
MDA-MB-231 breast = system: MDA-MB-231 breast
MDA-MB-435 = system: MDA-MB-435
MDA-N = system: MDA-N
MOLT-4 leukemia = system: MOLT-4 leukemia
NCI-H226 lung = system: NCI-H226 lung
NCI-H23 lung = system: NCI-H23 lung
NCI-H460 lung = system: NCI-H460 lung
NCI-H522 lung = system: NCI-H522 lung
NCI/ADR-RES ovarian = system: NCI/ADR-RES ovarian
OVCAR-3 ovarian = system: OVCAR-3 ovarian
OVCAR-5 ovarian = system: OVCAR-5 ovarian
OVCAR-8 ovarian = system: OVCAR-8 ovarian
PC-3 prostate = system: PC-3 prostate
RPMI-8226 leukemia = system: RPMI-8226 leukemia
RXF 393 renal = system: RXF 393 renal
SF-295 CNS = system: SF-295 CNS
SK-MEL-2 melanoma = system: SK-MEL-2 melanoma
SK-MEL-28 melanoma = system: SK-MEL-28 melanoma
SK-MEL-5 melanoma = system: SK-MEL-5 melanoma
SK-OV-3 ovarian = system: SK-OV-3 ovarian
SNB-19 CNS = system: SNB-19 CNS
SNB-75 CNS = system: SNB-75 CNS
SR leukemia = system: SR leukemia
T-47D breast = system: T-47D breast
U251 CNS = system: U251 CNS
UACC-62 melanoma = system: UACC-62 melanoma
UO-31 renal = system: UO-31 renal
786-0 renal = system: 786-0 renal
A549 NSCLC = system: A549 NSCLC
ACHN renal = system: ACHN renal
EKVX NSCLC = system: EKVX NSCLC
LOX IMVI melanoma = system: LOX IMVI melanoma
OVCAR-4 ovarian = system: OVCAR-4 ovarian
SF-268 CNS = system: SF-268 CNS
SF-539 CNS = system: SF-539 CNS
SN12C renal = system: SN12C renal
SW-620 colon = system: SW-620 colon
TK-10 renal = system: TK-10 renal
UACC-257 melanoma = system: UACC-257 melanoma

**Q.** Which TGI (A498 renal) does the source give for O=C(N=Nc1ccc(Br)cc1)NNc1ccc(Br)cc1 here?
**A.** Its TGI is > 100 µM.

**Q.** What about the TGI (CAKI-1 renal) of the same compound?
**A.** Its TGI is 52.9 µM.

**Q.** What about the TGI (CCRF-CEM leukemia) of the same compound?
**A.** Its TGI is 18.2 µM.

**Q.** What about the TGI (COLO 205 colon) of the same compound?
**A.** Its TGI is 48.9 µM.

**Q.** And the TGI (DU-145 prostate)?
**A.** The TGI was > 100 µM.

**Q.** What about the TGI (HCC-2998 colon) of the same compound?
**A.** Its TGI is 55.7 µM.

**Q.** And the TGI (HCT-116 colon)?
**A.** The TGI was 31.3 µM.

**Q.** And the TGI (HCT-15 colon)?
**A.** Its TGI is 58.2 µM.

**Q.** What about the TGI (HL-60(TB) leukemia) of the same compound?
**A.** Its TGI is > 100 µM.

**Q.** What about the TGI (HOP-62 NSCLC) of the same compound?
**A.** The TGI was 32.6 µM.

**Q.** And the TGI (HOP-92 NSCLC)?
**A.** Its TGI is 30.7 µM.

**Q.** What about the TGI (HT29 colon) of the same compound?
**A.** The TGI was 33.1 µM.

**Q.** What about the TGI (IGROV1 ovarian) of the same compound?
**A.** The TGI was 64.7 µM.

**Q.** What about the TGI (K-562 leukemia) of the same compound?
**A.** Its TGI is 25 µM.

**Q.** What about the TGI (KM12 colon) of the same compound?
**A.** Its TGI is 35.1 µM.

**Q.** And the TGI (M14 melanoma)?
**A.** The TGI was 31.8 µM.

**Q.** What about the TGI (MALME-3M melanoma) of the same compound?
**A.** The TGI was 87.1 µM.

**Q.** And the TGI (MCF7 breast)?
**A.** Its TGI is 40.8 µM.

**Q.** And the TGI (MDA-MB-231 breast)?
**A.** Its TGI is 47.2 µM.

**Q.** What about the TGI (MDA-MB-435) of the same compound?
**A.** The TGI was 46.1 µM.

**Q.** And the TGI (MDA-N)?
**A.** The TGI was 64.7 µM.

**Q.** And the TGI (MOLT-4 leukemia)?
**A.** The TGI was 26 µM.

**Q.** What about the TGI (NCI-H226 lung) of the same compound?
**A.** The TGI was 47.1 µM.

**Q.** What about the TGI (NCI-H23 lung) of the same compound?
**A.** Its TGI is 68.9 µM.

**Q.** And the TGI (NCI-H460 lung)?
**A.** The TGI was 44 µM.

**Q.** What about the TGI (NCI-H522 lung) of the same compound?
**A.** The TGI was 31 µM.

**Q.** What about the TGI (NCI/ADR-RES ovarian) of the same compound?
**A.** The TGI was 43.3 µM.

**Q.** What about the TGI (OVCAR-3 ovarian) of the same compound?
**A.** Its TGI is 30.5 µM.

**Q.** What about the TGI (OVCAR-5 ovarian) of the same compound?
**A.** Its TGI is 57.1 µM.

**Q.** And the TGI (OVCAR-8 ovarian)?
**A.** The TGI was > 100 µM.

**Q.** What about the TGI (PC-3 prostate) of the same compound?
**A.** The TGI was 31.9 µM.

**Q.** And the TGI (RPMI-8226 leukemia)?
**A.** The TGI was 78 µM.

**Q.** What about the TGI (RXF 393 renal) of the same compound?
**A.** Its TGI is 28.7 µM.

**Q.** And the TGI (SF-295 CNS)?
**A.** The TGI was > 100 µM.

**Q.** What about the TGI (SK-MEL-2 melanoma) of the same compound?
**A.** The TGI was 37.9 µM.

**Q.** What about the TGI (SK-MEL-28 melanoma) of the same compound?
**A.** Its TGI is 64.5 µM.

**Q.** And the TGI (SK-MEL-5 melanoma)?
**A.** The TGI was 26.9 µM.

**Q.** What about the TGI (SK-OV-3 ovarian) of the same compound?
**A.** Its TGI is 74 µM.

**Q.** What about the TGI (SNB-19 CNS) of the same compound?
**A.** Its TGI is > 100 µM.

**Q.** What about the TGI (SNB-75 CNS) of the same compound?
**A.** The TGI was 61.9 µM.

**Q.** What about the TGI (SR leukemia) of the same compound?
**A.** Its TGI is > 100 µM.

**Q.** And the TGI (T-47D breast)?
**A.** The TGI was > 100 µM.

**Q.** And the TGI (U251 CNS)?
**A.** Its TGI is 34.7 µM.

**Q.** And the TGI (UACC-62 melanoma)?
**A.** Its TGI is 27.2 µM.

**Q.** What about the TGI (UO-31 renal) of the same compound?
**A.** The TGI was 65.2 µM.

**Q.** Which results are given for CC(=O)NC(CCC(=O)OC(C)(C)C)C(=O)NC(CCC(=O)OC(C)(C)C)C(=O)NC(Cc1ccc([N+](=O)[O-])cc1)C(=O)NC(CCCCNC(=O)OC(C)(C)C)C(=O)NC(CCCCNC(=O)OC(C)(C)C)C(=O)NCC(=O)O (stereo unspecified) (Ac-E(OtBu)E(OtBu)[Phe(4-NO2)]K(Boc)K(Boc)G-OH; configuration not given here)?
**A.** TGI (786-0 renal): > 100 µM; TGI (A549 NSCLC): > 100 µM; TGI (ACHN renal): > 100 µM; TGI (CAKI-1 renal): > 100 µM; TGI (CCRF-CEM leukemia): > 100 µM; TGI (COLO 205 colon): > 100 µM; TGI (DU-145 prostate): > 100 µM; TGI (EKVX NSCLC): > 100 µM; TGI (HCC-2998 colon): > 100 µM; TGI (HCT-116 colon): > 100 µM; TGI (HCT-15 colon): > 100 µM; TGI (HL-60(TB) leukemia): > 100 µM; TGI (HOP-62 NSCLC): > 100 µM; TGI (HOP-92 NSCLC): > 100 µM; TGI (HT29 colon): > 100 µM; TGI (IGROV1 ovarian): > 100 µM; TGI (K-562 leukemia): > 100 µM; TGI (KM12 colon): > 100 µM; TGI (LOX IMVI melanoma): > 100 µM; TGI (M14 melanoma): 53.5 µM; TGI (MALME-3M melanoma): > 100 µM; TGI (MCF7 breast): > 100 µM; TGI (MDA-MB-231 breast): > 100 µM; TGI (MDA-MB-435): > 100 µM; TGI (MDA-N): > 100 µM; TGI (MOLT-4 leukemia): > 100 µM; TGI (NCI-H226 lung): > 100 µM; TGI (NCI-H23 lung): > 100 µM; TGI (NCI-H460 lung): > 100 µM; TGI (NCI-H522 lung): > 100 µM; TGI (NCI/ADR-RES ovarian): > 100 µM; TGI (OVCAR-3 ovarian): > 100 µM; TGI (OVCAR-4 ovarian): > 100 µM; TGI (OVCAR-5 ovarian): > 100 µM; TGI (OVCAR-8 ovarian): > 100 µM; TGI (PC-3 prostate): > 100 µM; TGI (RPMI-8226 leukemia): > 100 µM; TGI (RXF 393 renal): > 100 µM; TGI (SF-268 CNS): > 100 µM; TGI (SF-295 CNS): > 100 µM; TGI (SF-539 CNS): > 100 µM; TGI (SK-MEL-2 melanoma): > 100 µM; TGI (SK-MEL-28 melanoma): > 100 µM; TGI (SK-MEL-5 melanoma): > 100 µM; TGI (SK-OV-3 ovarian): > 100 µM; TGI (SN12C renal): > 100 µM; TGI (SNB-19 CNS): > 100 µM; TGI (SNB-75 CNS): > 100 µM; TGI (SR leukemia): > 100 µM; TGI (SW-620 colon): > 100 µM; TGI (T-47D breast): > 100 µM; TGI (TK-10 renal): > 100 µM; TGI (U251 CNS): > 100 µM; TGI (UACC-257 melanoma): > 100 µM; TGI (UACC-62 melanoma): > 100 µM; TGI (UO-31 renal): > 100 µM
